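The concentration for 50% growth inhibition is given as GI50. TGI denotes the concentration required for complete inhibition of growth.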
Columns and labels:
Assay in all cases: NCI-60 cell line screen, 384-well format
786-0 renal = tested on: 786-0 renal
BT-549 breast = tested on: BT-549 breast
CCRF-CEM leukemia = tested on: CCRF-CEM leukemia
DU-145 prostate = tested on: DU-145 prostate
HCT-116 colon = tested on: HCT-116 colon
HOP-62 NSCLC = tested on: HOP-62 NSCLC
HT29 colon = tested on: HT29 colon
KM12 colon = tested on: KM12 colon
MDA-MB-231 breast = tested on: MDA-MB-231 breast
OVCAR-5 ovarian = tested on: OVCAR-5 ovarian
SK-MEL-5 melanoma = tested on: SK-MEL-5 melanoma
SNB-19 CNS = tested on: SNB-19 CNS
T-47D breast = tested on: T-47D breast

| SMILES | GI50 (786-0 renal) [µM] | TGI (786-0 renal) [µM] | GI50 (BT-549 breast) [µM] | TGI (BT-549 breast) [µM] | GI50 (CCRF-CEM leukemia) [µM] | TGI (CCRF-CEM leukemia) [µM] | GI50 (DU-145 prostate) [µM] | TGI (DU-145 prostate) [µM] | GI50 (HCT-116 colon) [µM] | TGI (HCT-116 colon) [µM] | GI50 (HOP-62 NSCLC) [µM] | TGI (HOP-62 NSCLC) [µM] | GI50 (HT29 colon) [µM] | TGI (HT29 colon) [µM] | GI50 (KM12 colon) [µM] | TGI (KM12 colon) [µM] | GI50 (MDA-MB-231 breast) [µM] | TGI (MDA-MB-231 breast) [µM] | GI50 (OVCAR-5 ovarian) [µM] | TGI (OVCAR-5 ovarian) [µM] | other results |
| --- | --- | --- | --- | --- | --- | --- | --- | --- | --- | --- | --- | --- | --- | --- | --- | --- | --- | --- | --- | --- | --- |
| O=C(Nc1cnn2ccc(N3CCC[C@@H]3c3cc(F)ccc3F)nc12)N1CC[C@H](O)C1 | > 100 | > 100 | > 100 | > 100 | > 100 | > 100 | > 100 | > 100 | > 100 | > 100 | > 100 | > 100 | > 100 | > 100 | 0.0181 | > 100 | > 100 | > 100 | > 100 | > 100 | GI50 (SK-MEL-5 melanoma): > 100 µM; TGI (SK-MEL-5 melanoma): > 100 µM; GI50 (SNB-19 CNS): > 100 µM; TGI (SNB-19 CNS): > 100 µM; GI50 (T-47D breast): > 100 µM; TGI (T-47D breast): > 100 µM |
| COc1ncc(-c2nc3c(n2C(C)C)[C@H](c2ccc(Cl)cc2)N(c2cc(Cl)cn(C)c2=O)C3=O)c(OC)n1 | 62.7 | > 100 | 36.2 | > 100 | 22.9 | 51.7 | 64.4 | > 100 | 18.2 | > 100 | > 51 | > 100 | 51.5 | > 100 | 49.8 | > 100 | 44.6 | > 100 | > 100 | > 100 | GI50 (SK-MEL-5 melanoma): 12.7 µM; TGI (SK-MEL-5 melanoma): 29.6 µM; GI50 (SNB-19 CNS): > 94.8 µM; TGI (SNB-19 CNS): > 100 µM; GI50 (T-47D breast): 34.3 µM; TGI (T-47D breast): > 91.8 µM |

— PubChem BioAssay (NCI)
